Like-named read-outs stand apart in the source and are kept apart here.
Key:
in vitro = conditions: human, Caco-2
Description: Caco-2 cells, a human colon adenocarcinoma cell line, were grown as monolayers for 21 days in Dulbecco's Modified Eagle's medium (1X) containing 10% fetal bovine serum, 1% non-essential amino acid solution, 1% penicillin-streptomycin and 2% glutamine at 37° C. in an atmosphere of 5% CO2 and 90% relative humidity. Caco-2 cells from passage numbers of 51 to 52 were seeded on permeable polycarbonate inserts (1 cm^2, 0.4 μm pore size) in 12 Transwell plates at a density of 80,000 cells/cm^2. The inserts were fed with media every other day until they were used for experiments 21 days after the initial seeding. The integrity of the cell monolayers was evaluated by measuring the transepithelial electrical resistance (TEER) values before the study using a Millicell®-ERS meter (Millipore Corp., Bedford, Mass.) with chopstick electrodes. […] The cell monolayers were washed twice with PBS prior to the transport experiments. After the wash, the plates were incubated for 30 min at 37° C., and the integrity of the cell monolayers was evaluated by measurement of TEER. The cell inserts were used in transport experiments when the TEER values reached >300 Ωcm^2.
The insert was moved to a well containing fresh PBS every 10 min for 40 min.
Papp was calculated according to the following equation: […]
The percent enhancement ratio, ER(%), for the Papp was calculated from the formula, […]

[1] = Intra-nasal administration of salmon calcitonin (sCT) with or without AT1002, plasma sCT by LC-MS; type: in vivo, Sprague-Dawley rats; conditions: for Tmax: 15 mg/kg
Description: Jugular cannulated Sprague-Dawley rats randomly received formulations of salmon calcitonin. The formulations administered intra-nasally to rats were dextrose solution of sCT (15 mg/kg) with or without various doses of AT1002 (2, 5, and 10 mg/kg). Doses were then slowly administered intra-nasally with a volume dose of 400 μl kg rat. Blood samples were drawn via the jugular cannula at each time point, and were deproteinized by the addition of acetonitrile. The concentration of sCT in the plasma was determined by LC-MS.

[2] = Intranasal administration of [14C] PEG4000 or [14C] inulin with/without AT1002, plasma concentration; type: in vivo, Sprague-Dawley rats; conditions: inulin with AT1002 10 mg/kg, p<0.05
From the text: Male Sprague-Dawley rats cannulated in the jugular vein were randomly assigned to receive radiolabelled paracellular markers, [^14C] PEG4000 or [^14C] inulin, with/without AT1002, for each intranasal study.

[3] = Intranasal administration of [3H]-AZT or [3H]-saquinavir with AT1002, uptake into blood plasma
Description: Blood samples (250 μl) were drawn into heparinized syringes at 10 or 15 min into polypropylene tubes, centrifuged (13,000 rpm for 10 min) immediately and plasma was obtained. Scintillation cocktail was added and samples were analyzed for radioactivity by Beckman Coulter LS 6500 multi-purpose Scintillation counter.
In a volume of 20 μl, 120 μCi/kg of [^3H]-AZT was administered to FVB mice of 20-25 g each. Other FVB mice received the same amount of AZT administered in the presence of AT1002(2 mg/kg). Blood samples were taken at 10 or 15 minutes.
[hu 3H]-Saquinavir (120 μCi/kg) was administered in a 20 μl volume intranasally to FVB mice in the absence or presence of AT1002 (5 mg/kg).

[4] = target: T1, protease activated receptor-2 (PAR-2) receptor (Mus musculus, UniProt P55086); conditions: intracolonic infusion of a 5 μg dose; cited from earlier work
T1 construct: Intracolonic infusion of a 5 μg dose of the PAR-2 agonist, SLIGRL
T1 sequence (P55086 26-399): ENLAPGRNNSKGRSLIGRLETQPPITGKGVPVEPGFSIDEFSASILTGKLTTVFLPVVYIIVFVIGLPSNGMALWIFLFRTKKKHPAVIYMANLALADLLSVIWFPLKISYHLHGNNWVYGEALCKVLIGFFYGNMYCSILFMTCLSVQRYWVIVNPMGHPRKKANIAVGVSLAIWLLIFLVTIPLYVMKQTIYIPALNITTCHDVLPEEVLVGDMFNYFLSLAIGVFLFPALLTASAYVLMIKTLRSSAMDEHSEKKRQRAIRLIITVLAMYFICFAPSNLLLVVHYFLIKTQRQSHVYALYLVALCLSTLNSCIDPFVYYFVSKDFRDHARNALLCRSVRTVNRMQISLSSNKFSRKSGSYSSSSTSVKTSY

Caco-2 cell monolayers = conditions: ZOT 0.22 to 0.89×10^−10 mol/ml, across Caco-2 cell monolayers; cited from earlier work
[5] = sCT 15 mg/kg intra-nasal with 10 mg/kg of AT1002, p<0.05

OC[C@@H](O)[C@@H](O)[C@H](O)[C@H](O)CO [Mannitol]
Papp (in vitro): 0.686 ± 0.057 ×10⁻⁶ cm/s

CC(C)C[C@H](NC(=O)[C@H](CCCCN)NC(=O)CNC(=O)[C@H](CC(C)C)NC(=O)[C@@H](NC(=O)[C@@H]1CSSC[C@H](N)C(=O)N[C@@H](CO)C(=O)N[C@@H](CC(N)=O)C(=O)N[C@@H](CC(C)C)C(=O)N[C@@H](CO)C(=O)N[C@@H]([C@@H](C)O)C(=O)N1)C(C)C)C(=O)N[C@@H](CO)C(=O)N[C@@H](CCC(N)=O)C(=O)N[C@@H](CCC(=O)O)C(=O)N[C@@H](CC(C)C)C(=O)N[C@@H](Cc1c[nH]cn1)C(=O)N[C@@H](CCCCN)C(=O)N[C@@H](CC(C)C)C(=O)N[C@@H](CCC(N)=O)C(=O)N[C@H](C(=O)N[C@@H](Cc1ccc(O)cc1)C(=O)N1CCC[C@H]1C(=O)N[C@@H](CCCNC(=N)N)C(=O)N[C@H](C(=O)N[C@@H](CC(N)=O)C(=O)N[C@H](C(=O)NCC(=O)N[C@@H](CO)C(=O)NCC(=O)N[C@H](C(=O)N1CCC[C@H]1C(N)=O)[C@@H](C)O)[C@@H](C)O)[C@@H](C)O)[C@@H](C)O [sCT only, Salmon calcitonin]
Tmax ([1]; Sprague-Dawley, rat, plasma, inhaled or intranasal, sCT 15 mg/kg intra-nasal alone (control), mean ± SEM, read-out: sCT Tmax (converted)): 32.5 min
Tmax ([1]; Sprague-Dawley, rat, plasma, inhaled or intranasal, sCT 15 mg/kg intra-nasal, sCT only (FIG. 7), read-out: Tmax of average plasma concentration profile of sCT (converted)): 30 min
Cmax ([1]; Sprague-Dawley, rat, plasma, inhaled or intranasal, sCT 15 mg/kg intra-nasal alone (control), mean ± SEM): 1230 ± 250 ng/mL
AUC(0-t) ([1]; Sprague-Dawley, rat, plasma, inhaled or intranasal, sCT 15 mg/kg intra-nasal alone (control), mean ± SEM, n=3-5, read-out: sCT AUC0-90 min (converted)): 997 ng·h/mL

H-FCIGRL-OH [AT1002, H-FCIGRL-OH]
inulin AUC0-360min, increase over control [2]: 292%
inulin Cmax, increase over control [2]: 315%
increase of plasma concentration of sCT vs sCT control ([1]; at 20 min, sCT 15 mg/kg intra-nasal with 10 mg/kg of AT1002, p<0.05): 1.99 fold
increase in sCT AUC0-90min to sCT control [1, 5]: 1.66 fold
increase in sCT Cmax to sCT control [1, 5]: 1.67 fold
increase of AZT levels in plasma ([3]; [3H]-AZT 120 μCi/kg intranasal, AT1002 2 mg/kg co-administered, blood at 10 or 15 min, vs AZT alone, p<0.05): about 33%
increase of saquinavir levels in plasma ([3]; [3H]-saquinavir 120 μCi/kg intranasal, in presence of AT1002 5 mg/kg vs absence): about 51%

SLIGRL
increase in the paracellular permeability of [51Cr]-EDTA [4]: 2 fold

ZOT: 44.8 kDa protein (399 amino acids) of Vibrio cholerae that reversibly opens tight junctions
enhanced transport of agents of varying molecular weights or low bioavailability (Caco-2 cell monolayers): up to 30 fold

Source: US20090252672A1, “NASAL DELIVERY OF THERAPEUTIC AGENTS USING TIGHT JUNCTION AGONISTS” (priority 2006, published 2009)
